Measurements as given in ChEMBL document CHEMBL1201862, “PubChem BioAssay data set” (2004).
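Values below derive from 48-hour exposures of cells grown in 96-well plates, with endpoints linearly interpolated between the two concentrations bracketing the appropriate inhibition level. Here, GI50 denotes the concentration required for 50% inhibition of growth.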 Active and inactive are the calls of the source. Cut-off read from the data, not from the text of the source: active = GI50 up to about 1.1 µM and inactive = higher.

Columns and labels:
Assay in all cases: inhibition of tumour cell growth, NCI panel, 48 h
MDA-MB-435 = tested on: MDA-MB-435
UACC-257 = tested on: UACC-257
786-0 = tested on: 786-0
DU-145 = tested on: DU-145
Malme-3M = tested on: Malme-3M
RXF 393 = tested on: RXF 393
ACHN = tested on: ACHN
SNB-75 = tested on: SNB-75
NCI/ADR-RES = tested on: NCI/ADR-RES
A549 = tested on: A549
MDA-N = tested on: MDA-N
HCT-116 = tested on: HCT-116
SN12C = tested on: SN12C
SK-OV-3 = tested on: SK-OV-3
CCRF-CEM = tested on: CCRF-CEM
K562 = tested on: K562
SK-MEL-28 = tested on: SK-MEL-28
OVCAR-8 = tested on: OVCAR-8
SK-MEL-5 = tested on: SK-MEL-5
A498 = tested on: A498

Row | Structure (SMILES) | GI50 (MDA-MB-435) | GI50 (UACC-257) | GI50 (786-0) | GI50 (DU-145) | GI50 (Malme-3M) | GI50 (RXF 393) | GI50 (ACHN) | GI50 (SNB-75) | GI50 (NCI/ADR-RES) | GI50 (A549) | GI50 (MDA-N) | GI50 (HCT-116) | GI50 (SN12C) | GI50 (SK-OV-3) | GI50 (CCRF-CEM) | GI50 (K562) | GI50 (SK-MEL-28) | GI50 (OVCAR-8) | GI50 (SK-MEL-5) | GI50 (A498)
1 | COc1c(-c2nc3ccc(N4CCN(C)CC4)nc3[nH]2)cc(OC)c2c1nc(CO)n2C | > 100 µM (inactive) | > 100 µM (inactive) | > 100 µM (inactive) | > 100 µM (inactive) | > 100 µM (inactive) | > 100 µM (inactive) | > 100 µM (inactive) | 31.1 µM (inactive) | > 100 µM (inactive) | > 100 µM (inactive) | > 100 µM (inactive) | > 100 µM (inactive) | > 100 µM (inactive) | > 100 µM (inactive) | > 100 µM (inactive) | > 100 µM (inactive) | > 100 µM (inactive) | > 100 µM (inactive) | – | –
2 | CCOC(=O)C(O)(CC1=NC(C(=O)OC)(C(=O)OC)C(c2cccc(C=O)c2)O1)C(=O)OCC (stereo not given) | > 100 µM (inactive) | > 100 µM (inactive) | > 100 µM (inactive) | > 100 µM (inactive) | – | > 100 µM (inactive) | > 100 µM (inactive) | > 100 µM (inactive) | > 100 µM (inactive) | > 100 µM (inactive) | > 100 µM (inactive) | > 100 µM (inactive) | > 100 µM (inactive) | > 100 µM (inactive) | > 100 µM (inactive) | > 100 µM (inactive) | > 100 µM (inactive) | > 100 µM (inactive) | > 100 µM (inactive) | > 100 µM (inactive)
3 | NCC(=O)N1CCN(c2nc(N3CCCC3)c3nc(Cl)c(NCc4ccccc4)nc3n2)CC1 | 1.85 µM (inactive) | 1.74 µM (inactive) | 1.69 µM (inactive) | 2.41 µM (inactive) | 2.15 µM (inactive) | 1.43 µM (inactive) | 2.11 µM (inactive) | 1.57 µM (inactive) | 8.26 µM (inactive) | 1.87 µM (inactive) | 1.82 µM (inactive) | 1.79 µM (inactive) | 1.85 µM (inactive) | 1.81 µM (inactive) | 2.49 µM (inactive) | – | 2.23 µM (inactive) | 1.77 µM (inactive) | 1.72 µM (inactive) | –
4 | CC(=O)O[C@H]1C(=O)[C@@]2(C)[C@H]([C@H](OC(=O)c3ccccc3)[C@]3(O)C[C@H](OC(=O)[C@H](O)[C@@H](NC(=O)c4ccoc4)c4ccccc4)C(C)=C1C3(C)C)[C@]1(OC(C)=O)CO[C@@H]1C[C@@H]2O | 0.0071 µM (active) | 16 µM (inactive) | 0.18 µM (active) | 0.0624 µM (active) | – | < 0.01 µM (active) | 0.37 µM (active) | 0.0112 µM (active) | 44 µM (inactive) | 0.0386 µM (active) | 0.00361 µM (active) | 0.0147 µM (active) | 0.0338 µM (active) | 0.358 µM (active) | 0.0379 µM (active) | 0.016 µM (active) | 0.0532 µM (active) | 0.067 µM (active) | 0.028 µM (active) | 0.0713 µM (active)
5 | N#Cc1c(-c2ccccc2)[nH]c2ccc(Cl)cc2c1=O | > 100 µM (inactive) | > 100 µM (inactive) | 30.5 µM (inactive) | > 100 µM (inactive) | > 100 µM (inactive) | 20.7 µM (inactive) | > 100 µM (inactive) | 44.7 µM (inactive) | 92.9 µM (inactive) | 13 µM (inactive) | > 100 µM (inactive) | 81.8 µM (inactive) | > 100 µM (inactive) | 25.1 µM (inactive) | > 100 µM (inactive) | > 100 µM (inactive) | > 100 µM (inactive) | 86.9 µM (inactive) | > 100 µM (inactive) | –
6 | COc1cc([C@@H]2c3cc4c(cc3C[C@@H]3COC(=O)C32)OCO4)cc(OC)c1O (stereo not given in full) | < 0.01 µM (active) | 87.7 µM (inactive) | 0.0299 µM (active) | 0.0973 µM (active) | 0.0121 µM (active) | 0.0165 µM (active) | 0.03 µM (active) | – | 0.0187 µM (active) | 0.0668 µM (active) | 0.0113 µM (active) | 0.0297 µM (active) | 0.143 µM (active) | 0.0287 µM (active) | 0.0228 µM (active) | 0.031 µM (active) | – | – | 0.0221 µM (active) | 0.211 µM (active)
7 | O=C1c2ccc(O)cc2OC(c2cc(O)c(O)c(O)c2)C1O (stereo not given) [DIHYDROBINETIN] | 19.8 µM (inactive) | 34.8 µM (inactive) | 23.8 µM (inactive) | 47.3 µM (inactive) | > 100 µM (inactive) | > 100 µM (inactive) | 25.8 µM (inactive) | – | 25.1 µM (inactive) | > 100 µM (inactive) | 18.4 µM (inactive) | 22 µM (inactive) | 20.4 µM (inactive) | > 100 µM (inactive) | 24.1 µM (inactive) | – | 46.8 µM (inactive) | 22 µM (inactive) | 33 µM (inactive) | 28.1 µM (inactive)
8 | N#CC(N)c1ccc(OCCCCCCCCCCOc2ccc(C(N)C#N)cc2)cc1 (stereo not given) | > 100 µM (inactive) | > 100 µM (inactive) | > 100 µM (inactive) | > 100 µM (inactive) | > 100 µM (inactive) | 43.2 µM (inactive) | > 100 µM (inactive) | – | 27.8 µM (inactive) | > 100 µM (inactive) | > 100 µM (inactive) | 80 µM (inactive) | > 100 µM (inactive) | > 100 µM (inactive) | 13.8 µM (inactive) | > 100 µM (inactive) | > 100 µM (inactive) | 44.3 µM (inactive) | > 100 µM (inactive) | > 100 µM (inactive)
9 | CCOC(=O)C1(C(=O)OCC)[C@@H](c2ccccc2)C2=NO[C@@H]3CCC[C@H]1[C@H]23 | 21.6 µM (inactive) | 24 µM (inactive) | 89.3 µM (inactive) | > 100 µM (inactive) | > 100 µM (inactive) | 48.4 µM (inactive) | 66.7 µM (inactive) | 47.4 µM (inactive) | 56.9 µM (inactive) | 48.4 µM (inactive) | 24.5 µM (inactive) | 45.5 µM (inactive) | > 100 µM (inactive) | 53.6 µM (inactive) | 23.8 µM (inactive) | 52.5 µM (inactive) | > 100 µM (inactive) | 58.9 µM (inactive) | 24.3 µM (inactive) | –
10 | N=C(N)NS(=O)(=O)c1ccc(NC(=O)c2cccc3c(NNc4ccc(S(N)(=O)=O)cc4)c4ccccc4nc23)cc1 | 51.6 µM (inactive) | > 100 µM (inactive) | 59.4 µM (inactive) | > 100 µM (inactive) | 34.8 µM (inactive) | > 100 µM (inactive) | 66.5 µM (inactive) | > 100 µM (inactive) | > 100 µM (inactive) | > 100 µM (inactive) | > 100 µM (inactive) | 53.8 µM (inactive) | 99.3 µM (inactive) | > 100 µM (inactive) | 34.5 µM (inactive) | 26.6 µM (inactive) | > 100 µM (inactive) | 66.1 µM (inactive) | 55.6 µM (inactive) | –
11 | CC(C)(CNC(=O)/C(Cl)=C(/Cl)C(=O)O)CNC(=O)/C(Cl)=C(/Cl)C(=O)O | > 100 µM (inactive) | > 100 µM (inactive) | > 100 µM (inactive) | > 100 µM (inactive) | – | > 100 µM (inactive) | 28.4 µM (inactive) | > 100 µM (inactive) | > 100 µM (inactive) | > 100 µM (inactive) | > 100 µM (inactive) | 36.2 µM (inactive) | > 10 µM (inactive) | > 100 µM (inactive) | 39.3 µM (inactive) | 40.1 µM (inactive) | > 100 µM (inactive) | > 100 µM (inactive) | > 100 µM (inactive) | > 100 µM (inactive)
12 | CCCCCC/C=C/C#CCCCCCCCC(=O)O | > 100 µM (inactive) | > 100 µM (inactive) | > 100 µM (inactive) | > 100 µM (inactive) | > 100 µM (inactive) | – | > 100 µM (inactive) | > 100 µM (inactive) | > 100 µM (inactive) | > 100 µM (inactive) | > 100 µM (inactive) | > 100 µM (inactive) | > 100 µM (inactive) | > 100 µM (inactive) | 82.4 µM (inactive) | > 100 µM (inactive) | > 100 µM (inactive) | > 100 µM (inactive) | > 100 µM (inactive) | > 100 µM (inactive)
13 | C=CC(C)(C)/C(=C\CO[Si](C(C)C)(C(C)C)C(C)C)C(=O)N(C)c1ccccc1I | 24.9 µM (inactive) | 13.3 µM (inactive) | 14.5 µM (inactive) | 13.9 µM (inactive) | – | 11.4 µM (inactive) | 13.1 µM (inactive) | 16.3 µM (inactive) | 19.5 µM (inactive) | 10.7 µM (inactive) | 16.4 µM (inactive) | 3.13 µM (inactive) | 16.2 µM (inactive) | 16.3 µM (inactive) | 5.79 µM (inactive) | – | 14.2 µM (inactive) | 14.8 µM (inactive) | 17.7 µM (inactive) | 20.3 µM (inactive)
14 | Cc1ccc2c(c1)C=CC1(O2)N(c2ccccc2)C(=S)OC1(C)C (stereo not given) | 22.1 µM (inactive) | 45.1 µM (inactive) | > 100 µM (inactive) | > 100 µM (inactive) | – | 73.3 µM (inactive) | > 100 µM (inactive) | > 100 µM (inactive) | > 100 µM (inactive) | 67.5 µM (inactive) | 29.1 µM (inactive) | 21.5 µM (inactive) | > 100 µM (inactive) | 21.4 µM (inactive) | 53 µM (inactive) | 7.29 µM (inactive) | > 100 µM (inactive) | > 100 µM (inactive) | 32.1 µM (inactive) | > 100 µM (inactive)
